Test results reported in patent US20060264460A1 (Wyeth, priority 2005, published 2006).

Molecular target: T1, human Cot/Tpl2 kinase (Homo sapiens, UniProt P41279)
T1 construct: human Cot/Tpl2 kinase construct encoding residues 30-398; 6His (N); made in house; host or cells: Sf9 insect cells, baculovirus system (BD Biosciences)
Assay: Tpl2/Cot kinase assay: GST-MEK1 phosphorylation detected by ELISA (DELFIA Eu)
Type: biochemical
Settings: Table 2; Tpl2/Cot kinase, GST-MEK1 substrate, 50 uM ATP
Summary of the method: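 Substrate phosphorylation (GST-MEK1 Ser217/221) quantified by DELFIA europium ELISA, yielding IC50 values. Reaction: 1 h at 30° C, pH 7.2 MOPS buffer, 50 uM ATP, 35 nM GST-MEK1, 0.4 nM monomeric His-Tpl2 purified from Sf9 cells, compounds at 1% final DMSO; stopped with EDTA.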

T1 sequence (P41279 30-398): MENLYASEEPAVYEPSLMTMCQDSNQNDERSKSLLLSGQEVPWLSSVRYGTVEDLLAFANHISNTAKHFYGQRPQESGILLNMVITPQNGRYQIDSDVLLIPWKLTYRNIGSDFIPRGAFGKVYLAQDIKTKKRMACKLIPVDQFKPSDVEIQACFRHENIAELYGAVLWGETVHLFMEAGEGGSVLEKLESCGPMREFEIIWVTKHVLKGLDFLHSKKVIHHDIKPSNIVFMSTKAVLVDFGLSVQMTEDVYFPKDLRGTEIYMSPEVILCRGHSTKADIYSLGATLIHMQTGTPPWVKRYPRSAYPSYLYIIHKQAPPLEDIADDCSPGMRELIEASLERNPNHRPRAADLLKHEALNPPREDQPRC

| SMILES | IC50 |
| --- | --- |
| N#Cc1cnc2c(Br)cc(NCc3cn(CCCN4CCCNCC4)nn3)cc2c1Nc1ccc(F)c(Cl)c1 [Example 594] | 43 nM |
| N#Cc1cnc2c(Cl)cc(NCc3cn(CCCN4CCCNCC4)nn3)cc2c1Nc1ccc(F)c(Cl)c1 [Example 595] | 74 nM |
| N#Cc1cnc2c(Br)cc(NCc3cn(CCCN4CCNCC4)nn3)cc2c1Nc1ccc(F)c(Cl)c1 [Example 596] | 110 nM |
| N#Cc1cnc2c(Cl)cc(NCc3cn(CCCN4CCNCC4)nn3)cc2c1Nc1ccc(F)c(Cl)c1 [Example 597] | 160 nM |
| N#Cc1cnc2c(Cl)cc(NCC(=O)NCc3cccnc3)cc2c1Nc1ccc(F)c(Cl)c1 [Example 598] | 200 nM |
| N#Cc1cnc2c(Cl)cc(NCc3cn(CCOC(N)=O)nn3)cc2c1Nc1ccc(F)c(Cl)c1 [Example 599] | 5.9 nM |
| N#Cc1cnc2c(Cl)cc(NCC(=O)NCc3ccncc3)cc2c1Nc1ccc(F)c(Cl)c1 [Example 600] | 48 nM |
| N#Cc1cnc2c(Cl)cc(NCC(=O)Nc3cccnc3)cc2c1Nc1ccc(F)c(Cl)c1 [Example 601] | 110 nM |
| N#Cc1cnc2c(Cl)cc(NCC(=O)Nc3ccncc3)cc2c1Nc1ccc(F)c(Cl)c1 [Example 602] | 2400 nM |
| CN(C)CCCNC(=O)CNc1cc(Cl)c2ncc(C#N)c(Nc3ccc(F)c(Cl)c3)c2c1 [Example 603] | > 3000 nM |
| N#Cc1cnc2c(Cl)cc(NCC(=O)NCCCN3CCOCC3)cc2c1Nc1ccc(F)c(Cl)c1 [Example 604] | > 3000 nM |
| CN(C)CCNC(=O)CNc1cc(Cl)c2ncc(C#N)c(Nc3ccc(F)c(Cl)c3)c2c1 [Example 605] | 1600 nM |
| COCCCNC(=O)CNc1cc(Cl)c2ncc(C#N)c(Nc3ccc(F)c(Cl)c3)c2c1 [Example 606] | 230 nM |
| N#Cc1cnc2c(Cl)cc(NCC(=O)NCc3ccccn3)cc2c1Nc1ccc(F)c(Cl)c1 [Example 607] | 330 nM |
| N#Cc1cnc2c(Cl)cc(NCC(=O)NCCN3CCOCC3)cc2c1Nc1ccc(F)c(Cl)c1 [Example 608] | 530 nM |
| CN(CCCn1cc(CNc2cc(Cl)c3ncc(C#N)c(Nc4ccc(F)c(Cl)c4)c3c2)nn1)C1CCCCC1 [Example 609] | 1.8 nM |
| CC1CC(C)CN(CCCn2cc(CNc3cc(Cl)c4ncc(C#N)c(Nc5ccc(F)c(Cl)c5)c4c3)nn2)C1 (centres unmarked) [Example 610] | 150 nM |
| CN(Cc1cn(C)cn1)c1cc(Br)c2ncc(C#N)c(Nc3ccc(F)c(Cl)c3)c2c1 [Example 611] | > 3000 nM |
| CN1CCCC1CCNC(=O)CNc1cc(Cl)c2ncc(C#N)c(Nc3ccc(F)c(Cl)c3)c2c1 (centres unmarked) [Example 612] | > 3000 nM |
| CN(C)C(=O)Cn1cc(CNc2cc(Cl)c3ncc(C#N)c(Nc4ccc(F)c(Cl)c4)c3c2)nn1 [Example 613] | 0.54 nM |
| CN(C)C(=O)CCn1cc(CNc2cc(Cl)c3ncc(C#N)c(Nc4ccc(F)c(Cl)c4)c3c2)nn1 [Example 614] | 10 nM |
| CN1CC(CCn2cc(CNc3cc(Cl)c4ncc(C#N)c(Nc5ccc(F)c(Cl)c5)c4c3)nn2)N(C)C1=O (centres unmarked) [Example 615] | 6.1 nM |
| CCN1CC(CCn2cc(CNc3cc(Cl)c4ncc(C#N)c(Nc5ccc(F)c(Cl)c5)c4c3)nn2)N(c2ccccc2)C1=O (centres unmarked) [Example 616] | 25 nM |
| CCN1CC(CCn2cc(CNc3cc(Cl)c4ncc(C#N)c(Nc5ccc(F)c(Cl)c5)c4c3)nn2)N(c2ccccc2)C1=S (centres unmarked) [Example 617] | 130 nM |

| SMILES | IC50 |
| --- | --- |
| CC(C)(C)OC(=O)N1CCC[C@H]1CNc1cc(Cl)c2ncc(C#N)c(Nc3ccc(F)c(Cl)c3)c2c1 [Example 618] | > 3000 nM |
| N#Cc1cnc2c(Cl)cc(NC[C@@H]3CCCN3)cc2c1Nc1ccc(F)c(Cl)c1 [Example 619] | > 3000 nM |
| N#Cc1cnc2c(Br)cc(NCc3cn(Cc4ccccn4)cn3)cc2c1Nc1ccc(F)c(Cl)c1 [Example 620] | 34 nM |
| N#Cc1cnc2c(Cl)cc(NCc3cn(Cc4ccccn4)cn3)cc2c1Nc1ccc(F)c(Cl)c1 [Example 621] | 41 nM |
| N#Cc1cnc2c(Cl)cc(NCc3cn(Cc4ccncc4)cn3)cc2c1Nc1ccc(F)c(Cl)c1 [Example 622] | 5.3 nM |
| CCN(C[C@@H]1CCCN1C(=O)OC(C)(C)C)c1cc(Cl)c2ncc(C#N)c(Nc3ccc(F)c(Cl)c3)c2c1 [Example 623] | > 3000 nM |
| CN1CCCN(CCCn2cc(CNc3cc(Br)c4ncc(C#N)c(Nc5ccc(F)c(Cl)c5)c4c3)nn2)CC1 [Example 624] | 70 nM |
| CN1CCCN(CCCn2cc(CNc3cc(Cl)c4ncc(C#N)c(Nc5ccc(F)c(Cl)c5)c4c3)nn2)CC1 [Example 625] | 48 nM |
| CN1CCN(CCCn2cc(CNc3cc(Br)c4ncc(C#N)c(Nc5ccc(F)c(Cl)c5)c4c3)nn2)CC1 [Example 626] | 29 nM |
| CN1CCN(CCCn2cc(CNc3cc(Cl)c4ncc(C#N)c(Nc5ccc(F)c(Cl)c5)c4c3)nn2)CC1 [Example 627] | 39 nM |
| N#Cc1cnc2c(Cl)cc(NC3CCCC3Cl)cc2c1Nc1ccc(F)c(Cl)c1 (centres unmarked) [Example 628] | > 3000 nM |
| N#Cc1cnc2c(Cl)cc(NC3CCCC3N=[N+]=[N-])cc2c1Nc1ccc(F)c(Cl)c1 (centres unmarked) [Example 629] | 420 nM |
| N#Cc1cnc2c(Br)cc(NCC(=O)O)cc2c1Nc1ccc(F)c(Cl)c1 [Example 630] | 140 nM |
| N#Cc1cnc2c(Cl)cc(NCC(O)CO)cc2c1Nc1ccc(F)c(Cl)c1 (centres unmarked) [Example 631] | 590 nM |
| N#Cc1cnc2c(Br)cc(NCc3cn(C4CCCC4)cn3)cc2c1Nc1ccc(F)c(Cl)c1 [Example 632] | 230 nM |
| CC(C)n1cnc(CNc2cc(Br)c3ncc(C#N)c(Nc4ccc(F)c(Cl)c4)c3c2)c1 [Example 633] | > 3000 nM |
| CC(=O)Nc1ccc(-n2cc(CNc3cc(Cl)c4ncc(C#N)c(Nc5ccc(F)c(Cl)c5)c4c3)nn2)cc1 [Example 634] | 35 nM |
| N#Cc1cnc2c(Cl)cc(NC3CCCC3n3cc(CCO)nn3)cc2c1Nc1ccc(F)c(Cl)c1 (centres unmarked) [Example 635] | 67 nM |
| CN(C)Cc1cn(C2CCCC2Nc2cc(Cl)c3ncc(C#N)c(Nc4ccc(F)c(Cl)c4)c3c2)nn1 (centres unmarked) [Example 636] | > 3000 nM |
| N#Cc1cnc2c(Cl)cc(NCC(CO)c3ccncc3)cc2c1Nc1ccc(F)c(Cl)c1 (centres unmarked) [Example 637] | > 3000 nM |
| N#Cc1cnc2c(Br)cc(NCc3cn(COCc4ccccc4)nn3)cc2c1Nc1ccc(F)c(Cl)c1 [Example 638] | > 3000 nM |
| CC(CNc1cc(Cl)c2ncc(C#N)c(Nc3ccc(F)c(Cl)c3)c2c1)c1ccncc1 (centres unmarked) [Example 639] | 200 nM |
| CCN(C[C@@H]1CCCN1)c1cc(Cl)c2ncc(C#N)c(Nc3ccc(F)c(Cl)c3)c2c1 [Example 640] | > 3000 nM |

Same assay, conditions: Tpl2/Cot kinase, GST-MEK1 substrate, 50 uM ATP

| SMILES | IC50 |
| --- | --- |
| CCN(C[C@@H]1CCCN1C(C)=O)c1cc(Cl)c2ncc(C#N)c(Nc3ccc(F)c(Cl)c3)c2c1 [Example 644] | > 3000 nM |
| CN(C)CC1CCCCC1Nc1cc(Cl)c2ncc(C#N)c(Nc3ccc(F)c(Cl)c3)c2c1 (centres unmarked) [Example 646] | > 3000 nM |
| CN1CCCC1CCNC(=O)Cn1cc(CNc2cc(Cl)c3ncc(C#N)c(Nc4ccc(F)c(Cl)c4)c3c2)nn1 (centres unmarked) [Example 651] | 6.9 nM |
| CC(C)(C)OC(=O)N1CCC(Nc2ccc3ncc(C#N)c(Nc4ccc(F)c(Cl)c4)c3c2)CC1 [Example 656] | > 40000 nM |
| N#Cc1cnc2ccc(NC3CCN(Cc4ccccc4)CC3)cc2c1Nc1ccc(F)c(Cl)c1 [Example 657] | 1700 nM |
| CC(C)N1CCC(Nc2ccc3ncc(C#N)c(Nc4ccc(F)c(Cl)c4)c3c2)CC1 [Example 658] | 25500 nM |
| CCN1CCC(Nc2ccc3ncc(C#N)c(Nc4ccc(F)c(Cl)c4)c3c2)C(C)C1 (centres unmarked) [Example 659] | > 40000 nM |
| CC(=O)Nc1cc(Br)c2ncc(C#N)c(Nc3ccc(F)c(Cl)c3)c2c1 [Example 660] | 4700 nM |
| N#Cc1cnc2c(Br)cc(NCc3cn(C45CC6CC(CC(C6)C4)C5)nn3)cc2c1Nc1ccc(F)c(Cl)c1 [Example 661] | 1700 nM |
| CN(C)CCCn1cc(CNc2cc(Br)c3ncc(C#N)c(Nc4ccc(F)c(Cl)c4)c3c2)nn1 [Example 662] | 20 nM |
| CN(C)CCn1cc(CNc2cc(Br)c3ncc(C#N)c(Nc4ccc(F)c(Cl)c4)c3c2)nn1 [Example 663] | 24 nM |
| Cn1cnc(CNc2cc(Br)c3ncc(C#N)c(Nc4ccc(F)c(Cl)c4)c3c2)n1 [Example 664] | 200 nM |
| N#Cc1cnc2c(Cl)cc(NCc3nc[nH]n3)cc2c1Nc1ccc(F)c(Cl)c1 [Example 666] | 100 nM |
| N#Cc1cnc2c(Br)cc(NCc3nc[nH]n3)cc2c1Nc1ccc(F)c(Cl)c1 [Example 667] | 110 nM |
| N#Cc1cnc2c(Br)cc(NCc3cncn3CCN3CCOCC3)cc2c1Nc1ccc(F)c(Cl)c1 [Example 668] | 160 nM |
| N#Cc1cnc2c(Br)cc(NCc3cn(CCN4CCOCC4)cn3)cc2c1Nc1ccc(F)c(Cl)c1 [Example 669] | 41 nM |
| N#Cc1cnc2c(Cl)cc(NCc3cn(CCN4CCOCC4)cn3)cc2c1Nc1ccc(F)c(Cl)c1 [Example 670] | 33 nM |
| N#Cc1cnc2c(Cl)cc(NCc3cncn3CCN3CCOCC3)cc2c1Nc1ccc(F)c(Cl)c1 [Example 671] | 62 nM |
| N#Cc1cnc2c(Br)cc(NCc3cn(CC(F)(F)F)nn3)cc2c1Nc1ccc(F)c(Cl)c1 [Example 673] | 100 nM |
| CC(C)(C)OC(=O)N1CCC(CCn2cc(CNc3cc(Cl)c4ncc(C#N)c(Nc5ccc(F)c(Cl)c5)c4c3)nn2)CC1 [Example 674] | 75 nM |
| CC(C)(C)OC(=O)N1CCC(CCn2cc(CNc3cc(Br)c4ncc(C#N)c(Nc5ccc(F)c(Cl)c5)c4c3)nn2)CC1 [Example 675] | 130 nM |
| CN(CCn1cc(CNc2cc(Cl)c3ncc(C#N)c(Nc4ccc(F)c(Cl)c4)c3c2)nn1)C(=O)OC(C)(C)C [Example 676] | 48 nM |
| CN(CCn1cc(CN(Cc2cn(CCN(C)C(=O)OC(C)(C)C)nn2)c2cc(Br)c3ncc(C#N)c(Nc4ccc(F)c(Cl)c4)c3c2)nn1)C(=O)OC(C)(C)C [Example 677] | 4700 nM |
| CN(CCn1cc(CNc2cc(Br)c3ncc(C#N)c(Nc4ccc(F)c(Cl)c4)c3c2)nn1)C(=O)OC(C)(C)C [Example 678] | 67 nM |
